The values that follow come from patent US7285541B2, “Treatment of melanoma by reduction in clusterin levels” (The University of British Columbia, priority 2002, dated 2007).

e = 2'-O-(2-methoxyethyl) (MOE); d = 2'-deoxy (DNA)

In data set [1] the test system is bcl-xL. The experiment in a line: bcl-xL expression in clusterin-expressing melanoma cells (Western blotting). It counts as cell-based, human. From the text: While chaperone-like function has been proposed for the clusterin protein, the specific molecular mechanism responsible for clusterin's role in apoptosis remains elusive. In the human melanoma cell line that expressed clusterin at a very low levels, over-expression of clusterin by stable transfection not only led to a marked increase in resistance to a cytotoxic treatment (FIG. 3), but led also to an up-regulation of the anti-apoptotic bcl-2 family member bcl-xL as shown by Western blotting. […] Thus, clusterin regulates the anti-apoptotic bcl-2 family member bcl-xL. Such inhibition is significant because bcl-xL is known to act as an inhibitor of apoptosis (See U.S. Pat. No. 6,182,216 which is incorporated herein by reference in those jurisdictions permitting such incorporation).

The subject of data set [2] is 518A2 cells. The experiment in a line: Sensitivity of antisense-treated melanoma cells to consecutive cisplatin treatment. The following applies: another melanoma cell line (FIG. 2, 518A2), compared to control-mismatch oligonucleotide. In kind it is cell-based, human.
For data set [3], the system named is clusterin. The experiment in a line: Clusterin expression in human melanoma cells by RT-PCR and western-blot. It counts as cell-based. The following applies: as compared to the scrambled mismatch control. On the procedure: Expression of clusterin in two different batches of normal human melanocytes (NHEM 6083 and 2489) and four human melanoma cell lines (518A2, SKMEL-28, Mel-Juso and 607B). Cells were grown in 6 cm dishes and harvested when they were 80-90% confluent. 30 μg of protein per lane was applied onto a 10% SDS-Page gel and probed with a polyclonal goat anti-clusterin antibody. Panceau red stain and an antibody directed against β-actin were used as a loading control. In each case, the antisense inhibitor of clusterin used is based on the advanced antisense chemistry 2′MOE as described in U.S. patent application Ser. No. 10/080,794 and has the sequence of Seq. ID. NO. 4.
FIG. 2 provides a graphic representations of clusterin expression in 518A2 cells after treatment with cisplatin and either an antisense oligonucleotide or a scrambled control. Lip is a Lipofectin control without oligonucleotide. Detection was performed using an antibody directed against clusterin.

Data set [4] deals with 607B melanoma cells. The experiment in a line: Cell number of 607B melanoma cells measured photometrically using MTS. It counts as cell-based, human. On the procedure:
Lipofectin™ (lip) without oligonucleotide was used as a control. Cells numbers in 96 well plates were measured photometrically using MTS (Cell Titer 96™, […]).

The subject of data set [5] is human melanoma cells. Put plainly: Apoptotic cell death of human melanoma cells after antisense treatment. In kind it is cell-based. To be noted: antisense treatment alone.
The test system of data set [6] is Mel Juso melanoma cells. The experiment in a line: Cell survival of Mel Juso melanoma cells (Neo or clusterin overexpression) in cisplatin, Cell-titer 96. In kind it is cell-based, human. To be noted: 10 μM cisplatin, clusterin-overexpressing vs empty vector (Neo) Mel Juso cells. On the procedure:
Mel Juso melanoma cells stably tranfected with either an empty control vector (Neo) or a vector directing overepression of clusterin were grown in medium containing 10 μM cisplatin. Cell survival was measured using the Cell-titer 96 kits from Promega.

For “cagcagcagagtcttcatcat (CAGCAGCAGAGTCTTCATCAT; sugars from the 5' end e4 d13 e4, all phosphorothioate, methylation of C not given here) [MOE modification of Seq. ID. NO. 4]”, the “expression of bcl-xL” value in data set [1] is “marked down-regulation”. In data set [2], the “sensitivity of surviving cells to consecutive treatment with cisplatin” value was “increased sensitivity”. Also, the “down-regulation of clusterin on the mRNA level” value in data set [3] (RT-PCR) is “dose dependent down-regulation”. For the same compound, the “down-regulation of clusterin on the protein level” value in data set [3] (western-blot) is “dose dependent down-regulation”. Besides, the cell death entry in data set [4] (607B melanoma cell line, antisense treatment alone) was “complete cell death”. In addition, in data set [4] (607B melanoma cells, antisense at 250 and 500 nM on two consecutive days, vs scrambled control 100 nM and Lipofectin), the cell counts entry is on record as “significantly reduced”. The apoptotic cell death result in data set [5] was “increase in apoptotic cell death”.

As to `N.N.[Cl][Pt][Cl]` [cisplatin], the “effectiveness of the chemotherapy agent (cell survival)” value in data set [6] is listed as “reduced the effectiveness”.
